{"source": "patent US20250255930A1", "about": "“METHODS OF TREATMENT OF TINNITUS USING DERIVATIVES OF OXYTOCIN” (MASKBEGONE LLC, priority 2024, published 2025)", "test": "clinical use of intranasal oxytocin formulations to treat tinnitus (patient case reports)", "assay_type": "in vivo, human", "from_the_text": "According to an embodiment, this disclosure provides a method for treating tinnitus. The method comprises administering intranasally to an individual a composition comprising or consisting essentially of oxytocin, wherein such administration results in treatment of tinnitus. The effectiveness of treatment of tinnitus may be monitored by quantifying tinnitus, such as by self-evaluation using clinically accepted techniques. An example is the Tinnitus Handicap Inventory (“THI”), a validated and published measurement technique. (Newman et al., Arch Otolaryngol Head Neck Surg, 1996 February 122 (2), 143-8). In an embodiment, the improvement in an individual using THI may comprise an improvement of at least 10%. In various embodiments, the improvement may comprise from 10-100%, such as at least 20, 30, 40, 50, 60, 70, 80, 90, 95, or 99%.\nThis example describes clinical use of the present formulations to treat tinnitus. […] A compounded formulation of oxytocin that provided a dose of 60 IU daily (30 IU twice daily) was then used. The formulation contained oxytocin, magnesium chloride, citric acid, and sodium citrate in sterile water. […] The dose was then increased to 45 IU (3 sprays of 15 IU) 4 times daily. […] A thickener was then added to the formulation keeping the oxytocin amount the same. […] Their score on the Tinnitus Handicap Inventory reduced from a pretreatment score of 96 (meaning a catastrophic level) to a current score of 14 (meaning mild or no tinnitus). The patient has remained improved over 1 year since initiating therapy. Their current dose is 22.5 IU in each nostril 4 times daily. Since their tinnitus occurs in distinct cycles, at times when tinnitus severity is loudest, they increase the dose to 5 times daily for 2 days. […] Their current handicap inventory is 8.", "key": {"[1]": {"details": "first patient, 22.5 IU in each nostril 4 times daily, 5 times daily for 2 days when loudest, past 3 months"}, "[2]": {"details": "patient with constant tinnitus, 30 IU 4 times daily, after 2 weeks"}, "[3]": {"details": "second patient, 45 IU twice daily"}}, "data": [{"smiles": "CC[C@H](C)[C@@H]1NC(=O)[C@H](Cc2ccc(O)cc2)NC(=O)[C@@H](N)CSSC[C@@H](C(=O)N2CCC[C@H]2C(=O)N[C@@H](CC(C)C)C(=O)NCC(N)=O)NC(=O)[C@H](CC(N)=O)NC(=O)[C@H](CCC(N)=O)NC1=O", "note": "[oxytocin, Cys-Tyr-Ile-Gln-Asn-Cys-Pro-Leu-Gly]", "values": [{"measurement": "time patient has remained improved since initiating therapy", "setting": "first patient", "result": "over 1 year"}, {"measurement": "current handicap inventory", "setting": "first patient, 22.5 IU in each nostril 4 times daily, 5 times daily for 2 days when loudest", "result": 8}, {"measurement": "time without tinnitus", "setting": "[1]", "result": "≤ 10", "unit": "days"}, {"measurement": "tinnitus severity", "setting": "[1]", "result": "reduced tinnitus severity"}, {"measurement": "relief of tinnitus", "setting": "first patient, 45 IU (3 sprays of 15 IU) 4 times daily", "result": "significant relief"}, {"measurement": "patient-reported benefit", "setting": "first patient, 60 IU daily (30 IU twice daily), oxytocin, magnesium chloride, citric acid, sodium citrate in sterile water", "result": "partial benefit"}, {"measurement": "score on the Tinnitus Handicap Inventory", "setting": "first patient, after treatment with thickener formulation, pretreatment score 96", "result": 14}, {"measurement": "relief of tinnitus", "setting": "first patient, initial dose of less than 20 IU daily", "result": "did not provide any relief"}, {"measurement": "tinnitus free period", "setting": "first patient, thickener added to formulation, oxytocin amount the same (45 IU 4 times daily)", "result": "several days of tinnitus free period"}, {"measurement": "relief of tinnitus", "setting": "lower amounts of oxytocin (such as under 20 IU per day)", "result": "did not result in any significant relief"}, {"measurement": "improvement", "setting": "patient with constant tinnitus after neck injury, 45 IU (22.5 IU in each nostril) 4 times daily for 30 days", "result": "about 15%"}, {"measurement": "tinnitus volume", "setting": "patient with constant tinnitus after neck injury, dose raised to 5 times daily on occasions", "result": "diminished tinnitus volume"}, {"measurement": "time without noticing the tinnitus", "setting": "[2]", "result": "several hours per day without noticing the tinnitus"}, {"measurement": "tinnitus intensity", "setting": "[2]", "result": "tinnitus intensity has lowered"}, {"measurement": "benefit", "setting": "patient with drug-caused tinnitus, 30 IU twice daily", "result": "without benefit"}, {"measurement": "decrease in tinnitus volume", "setting": "patient with drug-caused tinnitus, 45 IU 4 times daily", "result": "approximately 30%"}, {"measurement": "benefit", "setting": "[3]", "result": "significant benefit"}, {"measurement": "reduction of tinnitus volume", "setting": "[3]", "result": "45-60%"}, {"measurement": "time patient remains improved", "setting": "[3]", "result": "more than a year"}, {"measurement": "tinnitus free days", "setting": "[3]", "result": "some days in which they are tinnitus free"}]}]}
